Experimental data from ChEMBL document CHEMBL1133772, “In vitro and in vivo evaluation of dihydropyrimidinone C-5 amides as potent and selective alpha(1A) receptor antagonists for the treatment of benign prostatic hyperplasia” (J Med Chem, 2000).

Target: T1, Alpha-1B adrenergic receptor (Homo sapiens, UniProt P35368)
T1 sequence (P35368 whole entry): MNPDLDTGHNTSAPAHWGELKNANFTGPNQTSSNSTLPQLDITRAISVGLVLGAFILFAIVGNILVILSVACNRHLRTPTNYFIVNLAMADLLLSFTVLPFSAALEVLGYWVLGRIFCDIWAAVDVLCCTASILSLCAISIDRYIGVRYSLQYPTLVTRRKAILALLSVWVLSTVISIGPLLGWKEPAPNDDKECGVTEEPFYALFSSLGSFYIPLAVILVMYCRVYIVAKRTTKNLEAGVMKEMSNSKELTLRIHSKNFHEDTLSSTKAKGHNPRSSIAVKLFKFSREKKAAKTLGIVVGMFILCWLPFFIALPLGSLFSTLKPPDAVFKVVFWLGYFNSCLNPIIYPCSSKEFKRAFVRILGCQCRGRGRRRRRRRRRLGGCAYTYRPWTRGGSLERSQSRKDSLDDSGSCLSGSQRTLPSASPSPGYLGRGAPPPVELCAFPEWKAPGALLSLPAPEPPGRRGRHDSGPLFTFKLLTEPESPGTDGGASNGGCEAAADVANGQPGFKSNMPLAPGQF
Experiment: Evaluated for the ability to displace [125I]- HEAT from human cloned Alpha-1B adrenergic receptor stably expressed in LM cells.
Type: cell-based
Conditions: not given

Structure (SMILES)	Ki
CC(=O)N1C(=O)N(C)C(C)=C(C(=O)NCCCN2CCC(c3ccc(F)cc3)CC2)[C@H]1c1ccc(F)c(F)c1	33 nM
CC1=C(C(=O)NCCCN2CCC(c3ccc(F)cc3)CC2)[C@@H](c2ccc(F)c(F)c2)N(C)C(=O)N1	4.8 nM
N#Cc1ccccc1C1CCN(CCCNC(=O)C2=CNC(=O)N[C@@H]2c2ccc(F)c(F)c2)CC1	290 nM
N#Cc1ccccc1C1(C#N)CCN(CCCNC(=O)C2=CNC(=O)N[C@@H]2c2ccc(F)c(F)c2)CC1	970 nM
O=C1NC(C(F)(F)F)=C(C(=O)NCCCN2CCC(c3ccccn3)CC2)[C@@H](c2ccc(F)c(F)c2)N1	> 2000 nM
CC1=C(C(=O)NCCCN2CCC(C#N)(c3ccc(F)cc3C#N)CC2)[C@@H](c2ccc(F)c(F)c2)NC(=O)N1C	> 2000 nM
N#Cc1ccccc1C1CCN(CCCNC(=O)C2=C(C(F)(F)F)NC(=O)N[C@@H]2c2ccc(F)c(F)c2)CC1	700 nM
COC(=O)N1C(=O)N(C)C(C)=C(C(=O)NCCCN2CCC(c3ccc(F)cc3)CC2)[C@H]1c1ccc(F)c(F)c1	25 nM
CN1C=C(C(=O)NCCCN2CCC(C#N)(c3ccc(F)cc3C#N)CC2)[C@@H](c2ccc(F)c(F)c2)N(C)C1=O	72 nM
N#Cc1cc(F)ccc1C1CCN(CCCNC(=O)C2=CNC(=O)N[C@@H]2c2ccc(F)c(F)c2)CC1	26 nM
N#Cc1cc(F)ccc1C1CCN(CCCNC(=O)C2=C(C(F)(F)F)NC(=O)N[C@@H]2c2ccc(F)c(F)c2)CC1	200 nM

System: not listed separately
Experiment: Bioavailability in rat
Type: ADME, organism-based
Conditions: in vivo

Structure (SMILES)	bioavailability
N#Cc1ccccc1C1CCN(CCCNC(=O)C2=CNC(=O)N[C@@H]2c2ccc(F)c(F)c2)CC1	0%
N#Cc1ccccc1C1(C#N)CCN(CCCNC(=O)C2=CNC(=O)N[C@@H]2c2ccc(F)c(F)c2)CC1	0%
CC1=C(C(=O)NCCCN2CCC(C#N)(c3ccc(F)cc3C#N)CC2)[C@@H](c2ccc(F)c(F)c2)NC(=O)N1C	0%
CN1C=C(C(=O)NCCCN2CCC(C#N)(c3ccc(F)cc3C#N)CC2)[C@@H](c2ccc(F)c(F)c2)N(C)C1=O	< 6%
N#Cc1cc(F)ccc1C1CCN(CCCNC(=O)C2=CNC(=O)N[C@@H]2c2ccc(F)c(F)c2)CC1	0%

Species on record: Rattus norvegicus
Experiment: Duration of action with repeated challenges of A61603 agonist in rat; note: test concentration or dose not given here
Type: functional
Conditions: not given

Structure (SMILES)	Duration
N#Cc1ccccc1C1CCN(CCCNC(=O)C2=CNC(=O)N[C@@H]2c2ccc(F)c(F)c2)CC1	0.5 h
N#Cc1ccccc1C1(C#N)CCN(CCCNC(=O)C2=CNC(=O)N[C@@H]2c2ccc(F)c(F)c2)CC1	1 h
CC1=C(C(=O)NCCCN2CCC(C#N)(c3ccc(F)cc3C#N)CC2)[C@@H](c2ccc(F)c(F)c2)NC(=O)N1C	1 h
CN1C=C(C(=O)NCCCN2CCC(C#N)(c3ccc(F)cc3C#N)CC2)[C@@H](c2ccc(F)c(F)c2)N(C)C1=O	3 h
N#Cc1cc(F)ccc1C1CCN(CCCNC(=O)C2=CNC(=O)N[C@@H]2c2ccc(F)c(F)c2)CC1	2 h

Target: T2, Alpha-1A adrenergic receptor (Homo sapiens, UniProt P35348)
T2 sequence (P35348 whole entry): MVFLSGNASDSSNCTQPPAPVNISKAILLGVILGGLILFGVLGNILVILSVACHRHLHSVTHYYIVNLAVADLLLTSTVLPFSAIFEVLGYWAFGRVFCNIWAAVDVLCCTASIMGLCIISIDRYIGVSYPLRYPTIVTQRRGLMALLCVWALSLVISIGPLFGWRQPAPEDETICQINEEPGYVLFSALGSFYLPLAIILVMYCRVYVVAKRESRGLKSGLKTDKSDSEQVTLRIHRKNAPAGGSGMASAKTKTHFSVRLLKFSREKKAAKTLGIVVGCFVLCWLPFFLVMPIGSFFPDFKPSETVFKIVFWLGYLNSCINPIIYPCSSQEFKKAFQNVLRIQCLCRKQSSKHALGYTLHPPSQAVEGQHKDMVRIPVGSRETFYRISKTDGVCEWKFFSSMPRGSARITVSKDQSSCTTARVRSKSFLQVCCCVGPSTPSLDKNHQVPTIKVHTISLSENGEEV
Experiment: Evaluated for the ability to displace [125I]- HEAT from human cloned Alpha-1A adrenergic receptor stably expressed in CHO cells.
Type: cell-based
Conditions: not given

Structure (SMILES)	Ki
CC(=O)N1C(=O)N(C)C(C)=C(C(=O)NCCCN2CCC(c3ccc(F)cc3)CC2)[C@H]1c1ccc(F)c(F)c1	2.2 nM
CC1=C(C(=O)NCCCN2CCC(c3ccc(F)cc3)CC2)[C@@H](c2ccc(F)c(F)c2)N(C)C(=O)N1	0.14 nM
N#Cc1ccccc1C1CCN(CCCNC(=O)C2=CNC(=O)N[C@@H]2c2ccc(F)c(F)c2)CC1	0.13 nM
N#Cc1ccccc1C1(C#N)CCN(CCCNC(=O)C2=CNC(=O)N[C@@H]2c2ccc(F)c(F)c2)CC1	0.16 nM
O=C1NC(C(F)(F)F)=C(C(=O)NCCCN2CCC(c3ccccn3)CC2)[C@@H](c2ccc(F)c(F)c2)N1	500 nM
CC1=C(C(=O)NCCCN2CCC(C#N)(c3ccc(F)cc3C#N)CC2)[C@@H](c2ccc(F)c(F)c2)NC(=O)N1C	0.6 nM
N#Cc1ccccc1C1CCN(CCCNC(=O)C2=C(C(F)(F)F)NC(=O)N[C@@H]2c2ccc(F)c(F)c2)CC1	20 nM
COC(=O)N1C(=O)N(C)C(C)=C(C(=O)NCCCN2CCC(c3ccc(F)cc3)CC2)[C@H]1c1ccc(F)c(F)c1	0.75 nM
CN1C=C(C(=O)NCCCN2CCC(C#N)(c3ccc(F)cc3C#N)CC2)[C@@H](c2ccc(F)c(F)c2)N(C)C1=O	0.3 nM
N#Cc1cc(F)ccc1C1CCN(CCCNC(=O)C2=CNC(=O)N[C@@H]2c2ccc(F)c(F)c2)CC1	0.07 nM
N#Cc1cc(F)ccc1C1CCN(CCCNC(=O)C2=C(C(F)(F)F)NC(=O)N[C@@H]2c2ccc(F)c(F)c2)CC1	4.2 nM

Target: T2, Alpha-1A adrenergic receptor
Experiment: Ability to displace [125I]- HEAT from human cloned Alpha-1A adrenergic receptor stably expressed in CHO cells.
Type: cell-based
Conditions: not given

Structure (SMILES)	Ki
CC1=C(C(=O)NCCCN2CCC(c3ccc(F)cc3)CC2)[C@H](c2ccc(F)c(F)c2)N(C)C(=O)N1C	11 nM

Target: T3, Alpha-1D adrenergic receptor (Homo sapiens, UniProt P25100)
T3 sequence (P25100 whole entry): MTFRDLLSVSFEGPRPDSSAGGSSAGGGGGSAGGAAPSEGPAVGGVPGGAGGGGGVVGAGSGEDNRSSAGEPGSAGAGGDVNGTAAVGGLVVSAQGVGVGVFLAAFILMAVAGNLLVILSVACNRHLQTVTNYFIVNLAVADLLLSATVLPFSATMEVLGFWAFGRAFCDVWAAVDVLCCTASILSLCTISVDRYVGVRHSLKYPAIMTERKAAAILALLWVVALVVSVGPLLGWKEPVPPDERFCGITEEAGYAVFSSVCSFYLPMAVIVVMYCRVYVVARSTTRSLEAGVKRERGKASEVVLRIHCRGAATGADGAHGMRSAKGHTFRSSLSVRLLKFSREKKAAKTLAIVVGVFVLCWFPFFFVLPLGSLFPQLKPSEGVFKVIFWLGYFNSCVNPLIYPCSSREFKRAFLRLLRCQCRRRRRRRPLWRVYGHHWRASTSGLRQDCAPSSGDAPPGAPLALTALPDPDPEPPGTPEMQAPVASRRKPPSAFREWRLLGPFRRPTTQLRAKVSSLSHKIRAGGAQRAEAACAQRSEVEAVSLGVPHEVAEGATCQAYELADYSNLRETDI
Experiment: Evaluated for the ability to displace [125I]- HEAT from human cloned Alpha-1D adrenergic receptor stably expressed in HEK cells.
Type: cell-based, HEK293
Conditions: not given

Structure (SMILES)	Ki
CC(=O)N1C(=O)N(C)C(C)=C(C(=O)NCCCN2CCC(c3ccc(F)cc3)CC2)[C@H]1c1ccc(F)c(F)c1	230 nM
CC1=C(C(=O)NCCCN2CCC(c3ccc(F)cc3)CC2)[C@@H](c2ccc(F)c(F)c2)N(C)C(=O)N1	120 nM
N#Cc1ccccc1C1CCN(CCCNC(=O)C2=CNC(=O)N[C@@H]2c2ccc(F)c(F)c2)CC1	160 nM
N#Cc1ccccc1C1(C#N)CCN(CCCNC(=O)C2=CNC(=O)N[C@@H]2c2ccc(F)c(F)c2)CC1	2400 nM
O=C1NC(C(F)(F)F)=C(C(=O)NCCCN2CCC(c3ccccn3)CC2)[C@@H](c2ccc(F)c(F)c2)N1	> 5000 nM
CC1=C(C(=O)NCCCN2CCC(C#N)(c3ccc(F)cc3C#N)CC2)[C@@H](c2ccc(F)c(F)c2)NC(=O)N1C	> 4000 nM
N#Cc1ccccc1C1CCN(CCCNC(=O)C2=C(C(F)(F)F)NC(=O)N[C@@H]2c2ccc(F)c(F)c2)CC1	220 nM
COC(=O)N1C(=O)N(C)C(C)=C(C(=O)NCCCN2CCC(c3ccc(F)cc3)CC2)[C@H]1c1ccc(F)c(F)c1	170 nM
CN1C=C(C(=O)NCCCN2CCC(C#N)(c3ccc(F)cc3C#N)CC2)[C@@H](c2ccc(F)c(F)c2)N(C)C1=O	250 nM
N#Cc1cc(F)ccc1C1CCN(CCCNC(=O)C2=CNC(=O)N[C@@H]2c2ccc(F)c(F)c2)CC1	62 nM
N#Cc1cc(F)ccc1C1CCN(CCCNC(=O)C2=C(C(F)(F)F)NC(=O)N[C@@H]2c2ccc(F)c(F)c2)CC1	270 nM

Species on record: Rattus norvegicus
Experiment: Evaluated for the inhibition of A61603-induced prostate contraction in rat
Type: functional, Prostate gland
Conditions: not given

Structure (SMILES)	AD50
N#Cc1ccccc1C1CCN(CCCNC(=O)C2=CNC(=O)N[C@@H]2c2ccc(F)c(F)c2)CC1	1.5 µg/kg
N#Cc1ccccc1C1(C#N)CCN(CCCNC(=O)C2=CNC(=O)N[C@@H]2c2ccc(F)c(F)c2)CC1	3 µg/kg
CC1=C(C(=O)NCCCN2CCC(C#N)(c3ccc(F)cc3C#N)CC2)[C@@H](c2ccc(F)c(F)c2)NC(=O)N1C	5 µg/kg
CN1C=C(C(=O)NCCCN2CCC(C#N)(c3ccc(F)cc3C#N)CC2)[C@@H](c2ccc(F)c(F)c2)N(C)C1=O	13 µg/kg
N#Cc1cc(F)ccc1C1CCN(CCCNC(=O)C2=CNC(=O)N[C@@H]2c2ccc(F)c(F)c2)CC1	1.8 µg/kg

System: not listed separately
Experiment: t1/2 in rat
Type: ADME, organism-based
Conditions: in vivo

Structure (SMILES)	half-life
N#Cc1ccccc1C1CCN(CCCNC(=O)C2=CNC(=O)N[C@@H]2c2ccc(F)c(F)c2)CC1	43 min
N#Cc1ccccc1C1(C#N)CCN(CCCNC(=O)C2=CNC(=O)N[C@@H]2c2ccc(F)c(F)c2)CC1	45 min
CC1=C(C(=O)NCCCN2CCC(C#N)(c3ccc(F)cc3C#N)CC2)[C@@H](c2ccc(F)c(F)c2)NC(=O)N1C	24 min
CN1C=C(C(=O)NCCCN2CCC(C#N)(c3ccc(F)cc3C#N)CC2)[C@@H](c2ccc(F)c(F)c2)N(C)C1=O	15 min
N#Cc1cc(F)ccc1C1CCN(CCCNC(=O)C2=CNC(=O)N[C@@H]2c2ccc(F)c(F)c2)CC1	174 min

Target: T1, Alpha-1B adrenergic receptor
Experiment: Ability to displace [125I]- HEAT from human cloned Alpha-1B adrenergic receptor stably expressed in LM cells.
Type: cell-based
Conditions: not given

Structure (SMILES)	Ki
CC1=C(C(=O)NCCCN2CCC(c3ccc(F)cc3)CC2)[C@H](c2ccc(F)c(F)c2)N(C)C(=O)N1C	85 nM

Target: T3, Alpha-1D adrenergic receptor
Experiment: Ability to displace [125I]- HEAT from human cloned Alpha-1D adrenergic receptor stably expressed in HEK cells.
Type: cell-based, HEK293
Conditions: not given

Structure (SMILES)	Ki
CC1=C(C(=O)NCCCN2CCC(c3ccc(F)cc3)CC2)[C@H](c2ccc(F)c(F)c2)N(C)C(=O)N1C	410 nM
